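Step 1: Grow cells in 96-well plates. Step 2: Expose to compound for 48 hours at 5 concentrations. Step 3: Interpolate endpoints linearly; if unreached, use highest concentration. At the GI50, growth is halved.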 The source made the active and inactive calls. Cut-off read from the data, not from the text of the source: active = GI50 up to about 1.1 µM and inactive = higher.
Legend:
Assay in all cases: DTP human tumour cell line panel, 48 h
SK-MEL-5 = tested on: SK-MEL-5
IGROV-1 = tested on: IGROV-1
SF-295 = tested on: SF-295
A498 = tested on: A498
ACHN = tested on: ACHN
OVCAR-5 = tested on: OVCAR-5
OVCAR-8 = tested on: OVCAR-8
HCC 2998 = tested on: HCC 2998
CAKI-1 = tested on: CAKI-1
OVCAR-4 = tested on: OVCAR-4
NCI-H460 = tested on: NCI-H460
SK-MEL-2 = tested on: SK-MEL-2
SNB-75 = tested on: SNB-75
SK-OV-3 = tested on: SK-OV-3
EKVX = tested on: EKVX

Measured: GI50

S=c1sc2sc(=S)sc2s1
inactive: SK-MEL-5 > 100 µM | IGROV-1 > 100 µM | SF-295 20.6 µM | A498 23.5 µM | ACHN > 100 µM | OVCAR-5 20.9 µM | OVCAR-8 50.1 µM | HCC 2998 > 100 µM | CAKI-1 > 100 µM | OVCAR-4 > 100 µM | NCI-H460 22.4 µM | SK-MEL-2 > 100 µM | SNB-75 35.5 µM | SK-OV-3 19.6 µM

NCC1(N2CCOCC2)C2CCCC21CNc1ccccc1 (centres undefined)
inactive: SK-MEL-5 > 100 µM | IGROV-1 > 100 µM | SF-295 > 100 µM | ACHN > 100 µM | OVCAR-5 > 100 µM | OVCAR-8 > 100 µM | HCC 2998 61 µM | CAKI-1 > 100 µM | OVCAR-4 > 100 µM | NCI-H460 > 100 µM | SNB-75 57.9 µM

C=C1CN2CCc3c([nH]c4ccccc34)C2CC1CC(=O)N(C)C (centres undefined)
inactive: SK-MEL-5 > 309 µM | IGROV-1 > 309 µM | SF-295 > 309 µM | ACHN > 309 µM | OVCAR-8 > 309 µM | HCC 2998 > 309 µM | CAKI-1 > 309 µM | NCI-H460 > 309 µM | EKVX > 309 µM | SK-MEL-2 > 309 µM | SK-OV-3 > 309 µM

COC1=C(OC)CCC(/C(C#N)=C/c2ccc(OC)c(OC)c2)=C1
inactive: SK-MEL-5 > 100 µM | IGROV-1 56.4 µM | SF-295 15.9 µM | A498 > 100 µM | ACHN > 100 µM | OVCAR-5 > 100 µM | OVCAR-8 > 100 µM | HCC 2998 > 100 µM | CAKI-1 > 100 µM | OVCAR-4 > 100 µM | NCI-H460 > 100 µM | SK-MEL-2 85.9 µM | SNB-75 16 µM | SK-OV-3 26.4 µM

CN(C)/C(=N/C(=O)Nc1ccccc1)SCc1ccccc1
inactive: SK-MEL-5 > 100 µM | IGROV-1 > 100 µM | SF-295 > 100 µM | A498 > 100 µM | ACHN > 100 µM | OVCAR-5 > 100 µM | OVCAR-8 > 100 µM | HCC 2998 > 100 µM | CAKI-1 > 100 µM | OVCAR-4 > 100 µM | EKVX > 100 µM | SK-MEL-2 85.1 µM | SNB-75 > 100 µM | SK-OV-3 > 100 µM

CC(=O)/C(=C\c1ccco1)C(=O)Nc1ccccc1
inactive: SK-MEL-5 > 100 µM | IGROV-1 > 100 µM | SF-295 > 100 µM | ACHN > 100 µM | OVCAR-8 > 100 µM | HCC 2998 > 100 µM | CAKI-1 > 100 µM | OVCAR-4 > 100 µM | NCI-H460 > 100 µM | EKVX > 100 µM | SK-MEL-2 > 100 µM | SK-OV-3 > 100 µM

CCN(CC)c1c(C)nnn1C1OC(COC(C)=O)C(OC(C)=O)C(OC(C)=O)C1OC(C)=O (centres undefined)
inactive: SK-MEL-5 > 100 µM | IGROV-1 > 100 µM | SF-295 > 100 µM | A498 > 100 µM | ACHN > 100 µM | OVCAR-5 > 100 µM | OVCAR-8 > 100 µM | HCC 2998 > 100 µM | CAKI-1 > 100 µM | OVCAR-4 > 100 µM | NCI-H460 > 100 µM | EKVX > 100 µM | SNB-75 > 100 µM | SK-OV-3 > 100 µM

NNC(=O)C1CCC(=O)N1S(=O)(=O)c1ccccc1 (centres undefined)
inactive: SK-MEL-5 > 100 µM | IGROV-1 > 100 µM | SF-295 > 100 µM | ACHN > 100 µM | OVCAR-5 > 100 µM | OVCAR-8 > 100 µM | HCC 2998 > 100 µM | CAKI-1 > 100 µM | OVCAR-4 > 100 µM | NCI-H460 > 100 µM | EKVX > 100 µM | SK-MEL-2 > 100 µM | SNB-75 > 100 µM | SK-OV-3 > 100 µM
